# Target: bovine cardiac myosin (Bos taurus, UniProt Q9BE39)
# Test: Myosin activation assay (PK/LDH-coupled ATPase, bovine cardiac myofibrils)
# Format: biochemical
# Details: AC20 = concentration at which total response is increased by twenty percent
# In short: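 Skinned bovine cardiac myofibrils (1 mg/mL) in PIPES/MgCl2 buffer pH 6.8 at free Ca2+ giving ~50% (pCa ~6) or <5% (pCa 10) activation, with 50 μM ATP and 3.3% DMSO. ATPase rate from NADH absorbance at 340 nm (PK/LDH coupling) over 15 min at ambient temperature. AC20/AC50 from a four-parameter fit of DMSO-normalised rates.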
# bovine cardiac myosin, sequence (Q9BE39 whole entry): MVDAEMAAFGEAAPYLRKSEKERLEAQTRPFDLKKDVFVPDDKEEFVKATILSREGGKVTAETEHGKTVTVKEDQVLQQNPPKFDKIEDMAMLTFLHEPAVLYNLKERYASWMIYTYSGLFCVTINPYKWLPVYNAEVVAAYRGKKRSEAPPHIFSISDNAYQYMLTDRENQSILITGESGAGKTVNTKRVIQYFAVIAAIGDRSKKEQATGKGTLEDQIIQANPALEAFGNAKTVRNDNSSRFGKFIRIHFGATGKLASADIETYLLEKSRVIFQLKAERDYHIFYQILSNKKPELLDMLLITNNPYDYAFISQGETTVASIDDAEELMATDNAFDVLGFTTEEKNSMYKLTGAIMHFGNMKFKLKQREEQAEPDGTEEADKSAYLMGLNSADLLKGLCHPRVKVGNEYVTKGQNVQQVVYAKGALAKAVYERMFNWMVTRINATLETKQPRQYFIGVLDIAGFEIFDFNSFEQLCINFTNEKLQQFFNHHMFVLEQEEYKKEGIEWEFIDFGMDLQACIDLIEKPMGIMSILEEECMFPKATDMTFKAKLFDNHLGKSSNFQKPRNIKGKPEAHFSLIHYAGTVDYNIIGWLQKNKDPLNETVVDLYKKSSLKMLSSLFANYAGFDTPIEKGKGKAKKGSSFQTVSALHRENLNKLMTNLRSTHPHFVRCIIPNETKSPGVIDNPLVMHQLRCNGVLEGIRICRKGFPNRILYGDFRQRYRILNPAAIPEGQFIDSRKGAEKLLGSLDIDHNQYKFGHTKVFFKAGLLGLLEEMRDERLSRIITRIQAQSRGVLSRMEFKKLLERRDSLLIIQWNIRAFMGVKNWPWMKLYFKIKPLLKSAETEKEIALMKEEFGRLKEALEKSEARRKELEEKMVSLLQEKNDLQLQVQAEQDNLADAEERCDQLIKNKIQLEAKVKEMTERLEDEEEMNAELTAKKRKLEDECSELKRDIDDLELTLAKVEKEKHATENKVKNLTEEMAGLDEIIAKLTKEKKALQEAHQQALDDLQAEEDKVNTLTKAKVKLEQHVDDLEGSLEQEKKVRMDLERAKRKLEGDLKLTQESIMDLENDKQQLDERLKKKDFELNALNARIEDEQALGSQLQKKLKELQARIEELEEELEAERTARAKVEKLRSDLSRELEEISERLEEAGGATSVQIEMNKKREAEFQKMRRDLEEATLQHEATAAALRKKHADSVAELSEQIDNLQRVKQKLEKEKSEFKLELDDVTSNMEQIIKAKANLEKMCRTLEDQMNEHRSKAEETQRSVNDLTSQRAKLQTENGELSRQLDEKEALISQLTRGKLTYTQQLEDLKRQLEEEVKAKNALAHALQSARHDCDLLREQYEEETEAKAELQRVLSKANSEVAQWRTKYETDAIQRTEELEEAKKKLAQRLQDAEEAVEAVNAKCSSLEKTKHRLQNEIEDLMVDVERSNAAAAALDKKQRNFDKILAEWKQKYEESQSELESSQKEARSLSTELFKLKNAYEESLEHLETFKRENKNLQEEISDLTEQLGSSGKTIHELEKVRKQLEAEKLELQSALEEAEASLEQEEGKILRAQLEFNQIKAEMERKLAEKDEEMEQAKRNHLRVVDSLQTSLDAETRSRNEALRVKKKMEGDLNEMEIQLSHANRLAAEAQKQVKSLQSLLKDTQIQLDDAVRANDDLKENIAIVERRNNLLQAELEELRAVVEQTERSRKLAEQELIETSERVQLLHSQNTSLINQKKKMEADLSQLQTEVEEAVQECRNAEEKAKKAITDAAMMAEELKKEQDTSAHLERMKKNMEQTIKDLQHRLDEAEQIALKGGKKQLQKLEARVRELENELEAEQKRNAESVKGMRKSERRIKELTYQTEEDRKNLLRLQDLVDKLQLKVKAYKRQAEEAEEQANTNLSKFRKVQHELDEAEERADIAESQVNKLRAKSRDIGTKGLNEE
# bovine cardiac myosin, sequence (P85100 whole entry partner): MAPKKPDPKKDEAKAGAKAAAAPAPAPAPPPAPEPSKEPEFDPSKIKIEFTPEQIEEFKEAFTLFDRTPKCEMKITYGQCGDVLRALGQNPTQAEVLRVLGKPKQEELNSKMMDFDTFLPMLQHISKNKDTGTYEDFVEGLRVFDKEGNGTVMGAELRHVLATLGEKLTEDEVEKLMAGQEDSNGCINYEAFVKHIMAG
# bovine cardiac myosin, sequence (Q3SZE5 whole entry partner): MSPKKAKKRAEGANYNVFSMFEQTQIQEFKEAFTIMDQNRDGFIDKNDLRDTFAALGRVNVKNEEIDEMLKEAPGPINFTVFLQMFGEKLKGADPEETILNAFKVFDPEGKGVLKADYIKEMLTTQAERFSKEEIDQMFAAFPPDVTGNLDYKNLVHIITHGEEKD
row,Structure (SMILES),Myosin Activation (AC20)
1,"Cc1cc(S(=O)(=O)C(F)(F)C2CCN(C(=O)Nc3ccnnc3)CC2)n(C(C)C)n1 [Compound 87, 4-(difluoro((1-isopropyl-3-methyl-1H-pyrazol-5-yl)sulfonyl)methyl)-N-(pyridazin-4-yl)piperidine-1-carboxamide]",+ (+ represents myosin activation value AC20 > 5 μM)
2,"O=C(Nc1ccnnc1)N1CCC(C(F)(F)S(=O)(=O)c2ccc(O)nc2)CC1 [Compound 88, 4-(difluoro((6-hydroxypyridin-3-yl)sulfonyl)methyl)-N-(pyridazin-4-yl)piperidine-1-carboxamide]",+ (+ represents myosin activation value AC20 > 5 μM)
3,"Cn1nc(C(C)(C)C)cc1S(=O)(=O)C(F)(F)C1CCN(C(=O)Nc2ccnnc2)CC1 [Compound 89, 4-(((3-(tert-butyl)-1-methyl-1H-pyrazol-5-yl)sulfonyl)difluoromethyl)-N-(pyridazin-4-yl)piperidine-1-carboxamide]",+ (+ represents myosin activation value AC20 > 5 μM)
4,"Cc1cc(S(=O)(=O)C(F)(F)C2CCN(C(=O)Nc3ccnnc3)CC2)n(C2CC2)n1 [Compound 90, 4-(((1-cyclopropyl-3-methyl-1H-pyrazol-5-yl)sulfonyl)difluoromethyl)-N-(pyridazin-4-yl)piperidine-1-carboxamide]",+ (+ represents myosin activation value AC20 > 5 μM)
5,"O=C(Nc1ccnnc1)N1CCC(C(F)(F)S(=O)(=O)c2ccc3ccnn3c2)CC1 [Compound 91, 4-(difluoro(pyrazolo[1,5-a]pyridin-6-ylsulfonyl)methyl)-N-(pyridazin-4-yl)piperidine-1-carboxamide]",++ (++ represents myosin activation value AC20 from 2 μM-5 μM)
6,"O=C(Nc1ccnnc1)N1CCC(C(F)(F)S(=O)(=O)c2ccc(O)cc2Cl)CC1 [Compound 92, 4-(((2-chloro-4-hydroxyphenyl)sulfonyl)difluoromethyl)-N-(pyridazin-4-yl)piperidine-1-carboxamide]",++ (++ represents myosin activation value AC20 from 2 μM-5 μM)
7,"O=C(Nc1ccnnc1)N1CCC(C(F)(F)S(=O)(=O)c2cnn3ccccc23)CC1 [Compound 93, 4-(difluoro(pyrazolo[1,5-a]pyridin-3-ylsulfonyl)methyl)-N-(pyridazin-4-yl)piperidine-1-carboxamide]",++ (++ represents myosin activation value AC20 from 2 μM-5 μM)
8,"Cn1nccc1S(=O)(=O)C(F)(F)C1CCN(C(=O)Nc2ccnnc2)CC1 [Compound 94, 4-(difluoro((1-methyl-1H-pyrazol-5-yl)sulfonyl)methyl)-N-(pyridazin-4-yl)piperidine-1-carboxamide]",+ (+ represents myosin activation value AC20 > 5 μM)
9,"O=C(Nc1ccnnc1)N1CCC(C(F)(F)S(=O)(=O)c2ccccc2-n2cccn2)CC1 [Compound 95, 4-(((2-(1H-pyrazol-1-yl)phenyl)sulfonyl)difluoromethyl)-N-(pyridazin-4-yl)piperidine-1-carboxamide]",+ (+ represents myosin activation value AC20 > 5 μM)
10,"CN(C)c1ncccc1S(=O)(=O)C(F)(F)C1CCN(C(=O)Nc2ccnnc2)CC1 [Compound 96, 4-(((2-(dimethylamino)pyridin-3-yl)sulfonyl)difluoromethyl)-N-(pyridazin-4-yl)piperidine-1-carboxamide]",+ (+ represents myosin activation value AC20 > 5 μM)
11,"C[C@H](O)c1cc(NC(=O)N2CCC(C(F)(F)S(=O)(=O)c3cccc(F)c3)CC2)ccn1 [Compound 97, (S)-4-(difluoro((3-fluorophenyl)sulfonyl)methyl)-N-(2-(1-hydroxyethyl)pyridin-4-yl)piperidine-1-carboxamide]",+ (+ represents myosin activation value AC20 > 5 μM)
12,"C[C@@H](O)c1cc(NC(=O)N2CCC(C(F)(F)S(=O)(=O)c3cccc(F)c3)CC2)ccn1 [Compound 98, (R)-4-(difluoro((3-fluorophenyl)sulfonyl)methyl)-N-(2-(1-hydroxyethyl)pyridin-4-yl)piperidine-1-carboxamide]",+ (+ represents myosin activation value AC20 > 5 μM)
13,"C[C@H](O)c1cc(NC(=O)N2CCC(C(F)(F)S(=O)(=O)c3cn(C)nc3C(F)F)CC2)ccn1 [Compound 99, (S)-4-(((3-(difluoromethyl)-1-methyl-1H-pyrazol-4-yl)sulfonyl)difluoromethyl)-N-(2-(1-hydroxyethyl)pyridin-4-yl)piperidine-1-carboxamide]",+ (+ represents myosin activation value AC20 > 5 μM)
14,"C[C@@H](O)c1cc(NC(=O)N2CCC(C(F)(F)S(=O)(=O)c3cn(C)nc3C(F)F)CC2)ccn1 [Compound 100, (R)-4-(((3-(difluoromethyl)-1-methyl-1H-pyrazol-4-yl)sulfonyl)difluoromethyl)-N-(2-(1-hydroxyethyl)pyridin-4-yl)piperidine-1-carboxamide]",+ (+ represents myosin activation value AC20 > 5 μM)
15,"Cn1cc(S(=O)(=O)C(F)(F)C2CCN(C(=O)Nc3ccnc(CO)c3)CC2)c(C(F)F)n1 [Compound 101, 4-(((3-(difluoromethyl)-1-methyl-1H-pyrazol-4-yl)sulfonyl)difluoromethyl)-N-(2-(hydroxymethyl)pyridin-4-yl)piperidine-1-carboxamide]",++ (++ represents myosin activation value AC20 from 2 μM-5 μM)
16,"CC(C)(C1CCN(C(=O)Nc2ccon2)CC1)S(=O)(=O)c1ccc(C#N)cc1 [Compound 102, 4-(2-((4-cyanophenyl)sulfonyl)propan-2-yl)-N-(isoxazol-3-yl)piperidine-1-carboxamide]",+ (+ represents myosin activation value AC20 > 5 μM)
17,"Cn1cc(S(=O)(=O)C(C)(C)C2CCN(C(=O)Nc3ccnnc3)CC2)c(Cl)n1 [Compound 103, 4-(2-((3-chloro-1-methyl-1H-pyrazol-4-yl)sulfonyl)propan-2-yl)-N-(pyridazin-4-yl)piperidine-1-carboxamide]",++ (++ represents myosin activation value AC20 from 2 μM-5 μM)
18,"CC(C)(C1CCN(C(=O)Nc2ccc(F)nc2)CC1)S(=O)(=O)c1ccc(C(F)(F)F)nc1 [Compound 104, N-(6-fluoropyridin-3-yl)-4-(2-((6-(trifluoromethyl)pyridin-3-yl)sulfonyl)propan-2-yl)piperidine-1-carboxamide]",+ (+ represents myosin activation value AC20 > 5 μM)
19,"Cn1nc(C(F)F)cc1S(=O)(=O)C(C)(C)C1CCN(C(=O)Nc2ccnc(F)c2)CC1 [Compound 105, 4-(2-((3-(difluoromethyl)-1-methyl-1H-pyrazol-5-yl)sulfonyl)propan-2-yl)-N-(2-fluoropyridin-4-yl)piperidine-1-carboxamide]",+++ (+++ represents myosin activation value AC20 < 2 μM)
20,"Cn1nc(C(F)F)cc1S(=O)(=O)C(C)(C)C1CCN(C(=O)Nc2ccc(F)nc2)CC1 [Compound 106, 4-(2-((3-(difluoromethyl)-1-methyl-1H-pyrazol-5-yl)sulfonyl)propan-2-yl)-N-(6-fluoropyridin-3-yl)piperidine-1-carboxamide]",++ (++ represents myosin activation value AC20 from 2 μM-5 μM)
21,"Cc1ccc(NC(=O)N2CCC(C(C)(C)S(=O)(=O)c3cc(C(F)F)nn3C)CC2)cn1 [Compound 107, 4-(2-((3-(difluoromethyl)-1-methyl-1H-pyrazol-5-yl)sulfonyl)propan-2-yl)-N-(6-methylpyridin-3-yl)piperidine-1-carboxamide]",++ (++ represents myosin activation value AC20 from 2 μM-5 μM)
22,"Cn1nc(C(F)F)cc1S(=O)(=O)C(C)(C)C1CCN(C(=O)Nc2ccon2)CC1 [Compound 108, 4-(2-((3-(difluoromethyl)-1-methyl-1H-pyrazol-5-yl)sulfonyl)propan-2-yl)-N-(isoxazol-3-yl)piperidine-1-carboxamide]",++ (++ represents myosin activation value AC20 from 2 μM-5 μM)
23,"CC(C)(C1CCN(C(=O)Nc2ccc(F)nc2)CC1)S(=O)(=O)c1ccc(C#N)cc1 [Compound 109, 4-(2-((4-cyanophenyl)sulfonyl)propan-2-yl)-N-(6-fluoropyridin-3-yl)piperidine-1-carboxamide]",+ (+ represents myosin activation value AC20 > 5 μM)
24,"Cn1cc(S(=O)(=O)C(C)(C)C2CCN(C(=O)Nc3cn[nH]c3)CC2)c(C(F)(F)F)n1 [Compound 110, 4-(2-((1-methyl-3-(trifluoromethyl)-1H-pyrazol-4-yl)sulfonyl)propan-2-yl)-N-(1H-pyrazol-4-yl)piperidine-1-carboxamide]",++ (++ represents myosin activation value AC20 from 2 μM-5 μM)
25,"Cn1cc(S(=O)(=O)C(C)(C)C2CCN(C(=O)Nc3ccc(F)nc3)CC2)c(C(F)(F)F)n1 [Compound 111, N-(6-fluoropyridin-3-yl)-4-(2-((1-methyl-3-(trifluoromethyl)-1H-pyrazol-4-yl)sulfonyl)propan-2-yl)piperidine-1-carboxamide]",++ (++ represents myosin activation value AC20 from 2 μM-5 μM)
26,"CC(C)(C1CCN(C(=O)Nc2ccon2)CC1)S(=O)(=O)c1cccc(C#N)c1 [Compound 112, 4-(2-((3-cyanophenyl)sulfonyl)propan-2-yl)-N-(isoxazol-3-yl)piperidine-1-carboxamide]",++ (++ represents myosin activation value AC20 from 2 μM-5 μM)
27,"CC(C)(C1CCN(C(=O)Nc2ccon2)CC1)S(=O)(=O)c1ccc(C(F)(F)F)nc1 [Compound 113, N-(isoxazol-3-yl)-4-(2-((6-(trifluoromethyl)pyridin-3-yl)sulfonyl)propan-2-yl)piperidine-1-carboxamide]",+ (+ represents myosin activation value AC20 > 5 μM)
28,"Cn1nc(Cl)cc1S(=O)(=O)C(C)(C)C1CCN(C(=O)Nc2ccc(F)nc2)CC1 [Compound 114, 4-(2-((3-chloro-1-methyl-1H-pyrazol-5-yl)sulfonyl)propan-2-yl)-N-(6-fluoropyridin-3-yl)piperidine-1-carboxamide]",+++ (+++ represents myosin activation value AC20 < 2 μM)

# — patent US11123337B2, “4-methylsulfonyl-substituted piperidine urea compounds” (MYOKARDIA, INC., priority 2015, dated 2021)
